Measured values taken from patent EP0975351B1, “TREATMENT OF MULTIPLE SCLEROSIS THROUGH INGESTION OF COPOLYMER-1” (YEDA RESEARCH AND DEVELOPMENT CO. LTD., priority 1997, dated 1998).

Legend:
[1] = test system: PBL; experiment: Flow cytometry of peripheral blood lymphocytes (PBL); assay type: in vivo, Rhesus Monkeys; design: CD4+ / CD8+ / CD4+ CD45RA+ / CD8+ CD45RA+: unit not given here; conditions: for Ratio: CD4+/CD8+
Method: 3 Rhesus monkeys were treated as follows: One monkey served as control and was fed with placebo capsules (containing 5mg glucose only). The second and third monkeys were fed with glatiramer acetate containing capsules at a dose of 1mg/feeding and 20mg/feeding, respectively. Animals were fed every other day for a total of 10 feedings: 5 times prior to disease induction (immunization on day 0) and then 5 times after immunization.
Disease was induced on day 0 by an intradermal injection of 8mg bovine - MBP and 3 mg H37Ra M. tuberculosis in FCA into the hind footpads, total injected volume between 0.1 and 0.15 ml per footpad. The animals were followed for clinical manifestations of EAE, a variety of serum and CSF immunological markers and spinal cord and cranial MRI's.
The Epics C flow cytometer was used to analyze both peripheral blood lymphocytes (PBL) and cerebral spinal fluid (CSF) collected from each monkey. The red blood cells were lysed and the remaining white blood cells (WBCs) were washed and stained using standard methods with appropriate reagents. Tables 3 and 4 below show the data from staining PBL and CSF WBCs from the three animals in this Example.

[2] = test system: exacerbating-remitting multiple sclerosis; conditions: daily subcutaneous injections, phase III clinical trials; cited from earlier work
[3] = test system: EAE; experiment: Suppression of EAE in rats by oral administration; assay type: in vivo, Lewis rats
Method: (§1) Rats were immunized with 25 µg of GPBP emulsified 1:1 in CFA containing 4 mg/ml. H37Ra. The emulsion at a total volume of 0.1 ml. was injected into the two hindfoot pads.
(§2) Animals were examined daily from day 10 post induction for signs of disease. EAE was scored as follows: 0-no disease, 1-limp tail, 2-hind limb paralysis, 3-paralysis of all four limbs, 4-moribund condition, 5-death.
(§3) Rats were fed with 1 mg GPBP or glatiramer acetate dissolved in PBS by gastric intubation using a sterile feeding tube (Uno Plast, Denmark). Rats were fed 5 times (total dose of 5 mg) before disease induction at intervals of 2-3 days. EAE was induced two days after the last feeding. Control mice and rats were mock fed with PBS.

[4] = test system: EAE; experiment: Dose response study of oral Copolymer-1 in rats (EAE); assay type: in vivo; conditions: for Mean Score ±SD: PBS control 1.32±0.64; for Incidence: PBS control 10/11; for Mean Onset: PBS control 13.1; for Suppression* (%): calculated by mean score
Method: as §1, §2, §3
Rats were fed 5 times with 0.5, 1 or 2 mg glatiramer acetate according to the established protocol (see Materials and Methods, above) and then challenged for EAE induction.

[5] = test system: T-cell line derived from spleens of glatiramer acetate fed rats; experiment: Proliferation assay of T-cell line from spleens of fed rats; assay type: cell-based; conditions: rat line cultured with glatiramer acetate as antigen (Figure 6)
Method: Isolation of glatiramer acetate specific T cell lines - Lewis rats were fed 5 times with 1 mg glatiramer acetate and (SJUJ x BALB/c)F, mice 7 times with 250 µg glatiramer acetate, at intervals of 2-3 days. Four to twelve days after the last feeding animals were sacrificed and their spleens removed.
Spleen cells of 3 animals were pooled and incubated (50 x 10^6/plate) with glatiramer acetate (500 µg) in medium containing 1 % autologous serum for 4 days. Every 14-21 days cells (4-6 x 10^6/plate) were restimulated by 3 days exposure to copolymer-1 (500 µg) presented on syngeneic irradiated (3000 rad) rat thymocytes (100 x 10^6/plate) or mouse splenocytes (50 x 10^6/plate). Stimulation was followed by propagation in 10% supernatant of Con A activated normal mouse spleen cells as T cell growth factor (TCGF).
Proliferation Assay - T cell lines (1 x 10^4 cells) were cultured with irradiated (3000R) thymocytes (rat-1 x 10^6) or splenocytes (mouse- 5 x 10^5) and with the indicated antigens (10 µg glatiramer acetate; 1 µg Con A) in a final volume of 0.2 ml in microtiter plates. At the end of 48 hours incubation cultures were pulsed with ^3H-thymidine and harvested 6-12 hours later.

[6] = animal 18497, 1mg/dose, day +13
[7] = animal 18497, 1mg/dose, day +20
[8] = animal 18497, 1mg/dose, day +27
[9] = animal 18498, 20 mg/dose, day +6
[10] = animal 18498, 20 mg/dose, day +13
[11] = animal 18498, 20 mg/dose, day +20
[12] = animal 18498, 20 mg/dose, day +27
[13] = animal 18498, 20 mg/dose, day -1

Substance: glatiramer acetate
- Ratio ([1]; animal 18497, 1mg/dose, day +6): 1.26
- Ratio [1, 6]: 1.09
- Ratio [1, 7]: 1.28
- Ratio [1, 8]: 1.3
- Ratio ([1]; animal 18497, 1mg/dose, day -1): 0.97
- Ratio [1, 9]: 0.88
- Ratio [1, 10]: 0.89
- Ratio [1, 11]: 0.47
- Ratio [1, 12]: 0.71
- Ratio [1, 13]: 0.93
- CD4+ ([1]; animal 18497, 1mg/dose, day +6): 39
- CD4+ CD45RA+ ([1]; animal 18497, 1mg/dose, day +6): 24
- CD8+ ([1]; animal 18497, 1mg/dose, day +6): 31
- CD8+ CD45RA+ ([1]; animal 18497, 1mg/dose, day +6): 29
- CD4+ [1, 6]: 37
- CD4+ CD45RA+ [1, 6]: 16
- CD8+ [1, 6]: 34
- CD8+ CD45RA+ [1, 6]: 29
- CD4+ [1, 7]: 41
- CD4+ CD45RA+ [1, 7]: 18
- CD8+ [1, 7]: 32
- CD8+ CD45RA+ [1, 7]: 25
- CD4+ [1, 8]: 35
- CD4+ CD45RA+ [1, 8]: 12
- CD8+ [1, 8]: 27
- CD8+ CD45RA+ [1, 8]: 18
- CD4+ ([1]; animal 18497, 1mg/dose, day -1): 35
- CD4+ CD45RA+ ([1]; animal 18497, 1mg/dose, day -1): 21
- CD8+ ([1]; animal 18497, 1mg/dose, day -1): 36
- CD8+ CD45RA+ ([1]; animal 18497, 1mg/dose, day -1): 33
- CD4+ [1, 9]: 37
- CD4+ CD45RA+ [1, 9]: 23
- CD8+ [1, 9]: 42
- CD8+ CD45RA+ [1, 9]: 32
- CD4+ [1, 10]: 41
- CD4+ CD45RA+ [1, 10]: 24
- CD8+ [1, 10]: 46
- CD8+ CD45RA+ [1, 10]: 37
- CD4+ [1, 11]: 27
- CD4+ CD45RA+ [1, 11]: 12
- CD8+ [1, 11]: 57
- CD8+ CD45RA+ [1, 11]: 41
- CD4+ [1, 12]: 37
- CD4+ CD45RA+ [1, 12]: 22
- CD8+ [1, 12]: 52
- CD8+ CD45RA+ [1, 12]: 41
- CD4+ [1, 13]: 37
- CD4+ CD45RA+ [1, 13]: 23
- CD8+ [1, 13]: 40
- CD8+ CD45RA+ [1, 13]: 32
- progression of disability and relapse rate [2]: slow progression of disability and reduce the relapse rate
- Mean Onset ([3]; Lewis rats fed 1 mg 5 times before EAE induction, PBS control 11.9): 12.6 days
- Mean Maximal Score±SD ([3]; Lewis rats fed 1 mg 5 times before EAE induction, score 0-5, PBS control 1.8±0.5): 0.78±0.45
- inhibition of incidence of EAE ([3]; compared to PBS fed rats): 54%
- inhibition of severity of EAE ([3]; compared to PBS fed rats): 57%
- Mean Score ±SD ([4]; rats fed 5 times 0.5 mg): 0.95±0.57
- Incidence ([4]; rats fed 5 times 0.5 mg): 9/11
- Mean Onset ([4]; rats fed 5 times 0.5 mg): 13.5
- Suppression* (%) ([4]; rats fed 5 times 0.5 mg): 28%
- Mean Score ±SD ([4]; rats fed 5 times 1 mg): 0.64±0.50
- Incidence ([4]; rats fed 5 times 1 mg): 7/11
- Mean Onset ([4]; rats fed 5 times 1 mg): 15.1
- Suppression* (%) ([4]; rats fed 5 times 1 mg): 51%
- Mean Score ±SD ([4]; rats fed 5 times 2 mg): 0.91±0.70
- Incidence ([4]; rats fed 5 times 2 mg): 8/11
- Mean Onset ([4]; rats fed 5 times 2 mg): 13.1
- Suppression* (%) ([4]; rats fed 5 times 2 mg): 31%
- proliferation response of T-cell line [5]: proliferated in response to glatiramer acetate
